Consider 1 molecule from patent US5858995A, “Benzofuran derivatives useful as inhibitors of bone resorption” (Fujisawa Pharmaceutical Co., Ltd., priority 1994, dated 1999).

The test system of the assay is PTH-induced bone resorption (calvariae). Description: Bone organ culture: inhibition of PTH-induced bone resorption in rat calvariae. Particulars: Compound dose = 1 × 10^-5 (M); calvariae from Wistar rats, 10^-8 M human PTH (1-34); calcium in medium after six days. Type of assay: cell-based. The protocol: Test (Bone organ culture)
Calvariae from Wistar rats were excised and cultured in wells of 12-well culture plates containing 2 ml of Dulbecco's modified minimum essential medium supplemented with 10% fetal bovine serum and 10^-8 M human parathyroid hormone fragment (1-34) [PTH] in the presence of the test compound. In control dishes, PTH was not added. Control and PTH control were exposed to an equivalent concentration of the vehicle. Six days later, the concentration of calcium in the medium was measured by methylxylenol blue method and the percentage of inhibition of PTH-induced bone resorption was calculated according to following formula. [formula] Test Result

As for `Cc1oc2c(NC(=O)c3c(Cl)cccc3Cl)cccc2c1C` [Test Compound (1), 7-(2,6-Dichlorobenzoylamino)-2,3-dimethylbenzo[b]furan], the “Inhibition (%) of PTH-induced bone resorption” value came out at 100%.
